Laboratory results from patent publication US20210077461A1, “NEW USE” (Novartis AG, priority 2013, published 2021).

How the values were obtained:
[1] = test system: patients with chronic symptomatic heart failure and reduced ejection fraction (HF-REF); assay: PARADIGM-HF randomized double-blind trial, LCZ696 versus enalapril: efficacy outcomes; assay type: in vivo, human; details: for Death from any cause, number of patients / Death from any cause, percent of patients / Death from cardiovascular causes or first hospitalization for worsening heart failure (primary composite outcome), number of patients with an event / Death from cardiovascular causes or first hospitalization for worsening heart failure (primary composite outcome), percent of patients / Death from cardiovascular causes, number of patients / Death from cardiovascular causes, percent of patients / Decline in renal function, percent of patients / First hospitalization for worsening heart failure, number of patients / First hospitalization for worsening heart failure, percent of patients / Protocol-defined decline in renal function, number of patients: LCZ696 200 mg bid (N = 4187) or enalapril 10 mg bid (N = 4212); for Death from any cause, number of patients / Death from any cause, percent of patients / Death from cardiovascular causes or first hospitalization for worsening heart failure (primary composite outcome), number of patients with an event / Death from cardiovascular causes or first hospitalization for worsening heart failure (primary composite outcome), percent of patients / Death from cardiovascular causes, number of patients / Death from cardiovascular causes, percent of patients / Decline in renal function, percent of patients / First hospitalization for worsening heart failure, number of patients / First hospitalization for worsening heart failure, percent of patients / Protocol-defined decline in renal function, number of patients / New onset atrial fibrillation, percent of patients at risk / New onset atrial fibrillation, number of patients with an event (as a fraction of number of patients at risk): median follow-up 27 months; for Progressed to end-stage renal disease, number of patients / New onset atrial fibrillation, percent of patients at risk / New onset atrial fibrillation, number of patients with an event (as a fraction of number of patients at risk): LCZ696 200 mg bid or enalapril 10 mg bid; for KCCQ clinical summary score, direction of change when zero values were not imputed for patients who died: baseline to month 8
Description: Patients with chronic HF, NYHA functional class II-IV symptoms, an elevated plasma B-type natriuretic peptide (BNP) or NT-proBNP level and, initially, a left ventricular ejection fraction of ≤40% (later amended to ≤35%) are eligible. […] Secondary outcome measures are change in the Kansas City Cardiomyopathy Questionnaire (KCCQ) clinical summary score at 8 months, change in renal function, and time to all-cause mortality.
The trial was designed by the academic members of the Executive Committee (EC) in collaboration with Novartis personnel.
Entry criteria: 1) age 18 years or older and able to give written informed consent 2) New York Heart Association (NYHA) functional class II-IV, 3) left ventricular ejection fraction (LVEF) ≤35% (initially this was ≤40% but changed in a protocol amendment dated Dec. 15, 2010), 4) plasma B-type natriuretic peptide (BNP) ≥150 pg/ml (or N-terminal [NT]-proBNP ≥600 pg/ml) at the screening visit or a BNP ≥100 pg/mL (or NT-proBNP ≥400 pg/ml) and a hospitalization for HF within the last 12 months, 5) treatment with a stable dose of an ACE inhibitor or an ARB equivalent to enalapril 10 mg/d for at least 4 weeks before the screening visit, 6) treatment with stable dose of a β-blocker for at least 4 weeks prior to Visit 1, unless contraindicated or not tolerated. Although not required, the protocol specified that an aldosterone antagonist should also be considered in all patients, taking account of renal function, serum potassium and tolerability. If given, the dose of aldosterone antagonist should be stable for at least 4 weeks prior to the screening visit.
The key exclusion criteria include: • 1. […] Previous history of intolerance to recommended target doses of ACEIs or ARBs. • 3. Known history of angioedema. • 4. Requirement of treatment with both ACEIs and ARBs. • 5. Current acute decompensated heart failure (exacerbation of chronic heart failure manifested by signs and symptoms that may require intravenous therapy). • 6. Symptomatic hypotension and/or a systolic blood pressure (SBP)<100 mmHg at Visit 1 (screening) or <95 mmHg at Visit 3 or at Visit 5 (randomization). • 7. […] Serum potassium >5.2 mmol/L at Visit 1 (screening) or >5.4 mmol/L at Visit 3 or Visit 5 (randomization). • 9. Acute coronary syndrome, stroke, transient ischemic attack, cardiac, carotid or other major CV surgery, percutaneous coronary intervention or carotid angioplasty within the 3 months prior to Visit 1. • 10. Coronary or carotid artery disease likely to require surgical or percutaneous intervention within the 6 months after Visit 1. • 11. Implantation of a cardiac resynchronization therapy device (CRT) within 3 months prior
Visit 1 or intent to implant a CRT. • 12. History of heart transplant or on a transplant list or with left ventricular assistance device. • 13. History of severe pulmonary disease. • 14. Diagnosis of peripartum or chemotherapy induced cardiomyopathy within the 12 months prior to Visit 1. • 15. Documented untreated ventricular arrhythmia with syncopal episodes within the 3 months prior to Visit 1. • 16. Symptomatic bradycardia or second or third degree atrio-ventricular block without a pacemaker. • 17. Presence of haemodynamically significant mitral and/or aortic valve disease, except mitral regurgitation secondary to left ventricular dilatation. • 18. Presence of other haemodynamically significant obstructive lesions of left ventricular outflow tract, including aortic and sub-aortic stenosis. • 19. […] Presence of any other disease with a life expectancy of <5 years.
At the screening visit, patient eligibility was assessed according to the inclusion/exclusion criteria. Any local measurement of LVEF ≤35%, made within the past 6 months, was acceptable provided there was no subsequent LVEF measurement above 35%. Eligibility BNP (and NT-proBNP), serum potassium and estimated glomerular filtration rate (eGFR) were measured in a central laboratory.

[2] = test system: patients with chronic symptomatic heart failure and reduced ejection fraction (HF-REF); assay: PARADIGM-HF: safety and tolerability
Protocol: Patients are assessed at each study visit for hyperkalaemia, symptomatic hypotension, increase in serum creatinine, angioedema and other AEs and serious AEs (SAEs). […] The dose of background disease modifying drugs, such as β-blockers, should not be reduced to facilitate maintenance of study drug. Every attempt should be made to re-challenge the patients so as to maintain as many patients as possible on the target dose of study drug.
All identified cases are submitted to an independent angioedema adjudication committee for a final decision.
Thus, this study employed a seamless design, incorporating “Phase II” into a “Phase III” outcomes trial, as considered further in the Discussion. Further interim safety assessments are planned twice a year.

[3] = test system: patients with heart failure; details: cited from earlier work
[4] = test system: hypertensive patients; details: cited from earlier work
[5] = test system: HF patients; details: cited from earlier work
[6] = in vivo; cited from earlier work
[7] = LCZ696 group compared with enalapril group, stratified Cox model
[8] = over the duration of the trial, LCZ696 versus enalapril
[9] = zero values imputed for patients who died
[10] = subgroups by base-line treatment

CCCCC(=O)N(Cc1ccc(-c2ccccc2-c2nn[n-]n2)cc1)C(C(=O)[O-])C(C)C.CCOC(=O)C(C)CC(Cc1ccc(-c2ccccc2)cc1)NC(=O)CCC(=O)[O-].[Na+].[Na+].[Na+] [LCZ696, trisodium [3-((1S,3R)-1-biphenyl-4-ylmethyl-3-ethoxycarbonyl-1-butylcarbamoyl)propionate-(S)-3′-methyl-2′-(pentanoyl{2″-(tetrazol-5-ylate)biphenyl-4′-ylmethyl}amino)butyrate] hemipentahydrate]
Death from any cause, number of patients [1]: 711 patients
Death from any cause, percent of patients [1]: 17.0%
Death from cardiovascular causes or first hospitalization for worsening heart failure (primary composite outcome), number of patients with an event [1]: 914 patients
Death from cardiovascular causes or first hospitalization for worsening heart failure (primary composite outcome), percent of patients [1]: 21.8%
Death from cardiovascular causes, number of patients [1]: 558 patients
Death from cardiovascular causes, percent of patients [1]: 13.3%
Decline in renal function, percent of patients [1]: 2.3
First hospitalization for worsening heart failure, number of patients [1]: 537 patients
First hospitalization for worsening heart failure, percent of patients [1]: 12.8%
Protocol-defined decline in renal function, number of patients [1]: 94 patients
Progressed to end-stage renal disease, number of patients [1]: 8 patients
New onset atrial fibrillation, percent of patients at risk [1]: (3.2)
Death from any cause, hazard ratio [1, 7]: 0.84
Death from cardiovascular causes, hazard ratio [1, 7]: 0.80
Decline in renal function, hazard ratio [1, 7]: 0.86
First hospitalization for worsening heart failure, hazard ratio [1, 7]: 0.79
New onset atrial fibrillation, hazard ratio [1, 7]: 0.97
Primary composite outcome, hazard ratio [1, 7]: 0.80
KCCQ clinical summary score change, between-group difference when zero values were not imputed for patients who died ([1]; LCZ696 group versus enalapril group): 0.95
KCCQ clinical summary score change at 8 months, between-group difference ([1]; LCZ696 group versus enalapril group, zero values imputed for patients who died): 1.64
Reduction of the risk of cardiovascular death and the risk of hospitalization for heart failure compared to enalapril ([1]; LCZ696 versus ACE inhibition with enalapril): 20%
Reduction of hospitalization for heart failure compared to enalapril ([1]; LCZ696 versus enalapril): 21%
KCCQ clinical summary score, direction of change when zero values were not imputed for patients who died [1]: improved
Systolic blood pressure at 8 months compared with value at randomization, lower in the LCZ696 group than in the enalapril group ([1]; difference between groups at 8 months): 3.2±0.4 mm Hg
Number of patients needed to treat to prevent one cardiovascular death [1, 8]: 32 patients
Number of patients needed to treat to prevent one primary event [1, 8]: 21 patients
Mean change in KCCQ Clinical Summary Score from baseline to month 8 [1, 9]: −2.99
Angioedema confirmed by blinded adjudication, number of patients ([2]; following randomization): 19 patients
Cough as an adverse event, compared with the enalapril group ([2]; following randomization): less and less likely
Experience of serum creatinine level ≥2.5 mg/dl, compared with the enalapril group ([2]; following randomization): less likely
Experience of serum potassium level >6.0 mmol/l, compared with the enalapril group ([2]; following randomization): less likely
Hypotension / report of symptomatic hypotension, compared with the enalapril group ([2]; following randomization): more and more likely
Patients who stopped study medication because of renal impairment ([2]; following randomization): 0.7%
Patients who stopped study medication for any adverse event ([2]; following randomization): 10.7%
Hyperkalemia, compared with the enalapril group ([2]; in vivo): less
Non-serious angioedema, compared with the enalapril group ([2]; in vivo): more
Renal impairment, compared with the enalapril group ([2]; in vivo): less

CCCCC(=O)N(Cc1ccc(-c2ccccc2-c2nnn[nH]2)cc1)[C@H](C(=O)O)C(C)C [valsartan, (S)—N-valeryl-N-{[2′-(1H-tetrazole-5-yl)-biphenyl-4-yl]-methyl}-valine]
Incidence of the combined end point of mortality and morbidity, lower with valsartan than with placebo ([3]; Val-HeFT): 13.2%
NYHA class, ejection fraction, signs and symptoms of heart failure, and quality of life as compared with placebo ([3]; Val-HeFT): significant improvements
Number of patients hospitalized for heart failure ([3]; Val-HeFT): 346 patients
Overall mortality compared with placebo group ([3]; Val-HeFT): similar
Percent of patients hospitalized for heart failure ([3]; Val-HeFT): 13.8%
Post hoc analysis of the combined end point and mortality, patients receiving both ACE inhibitors and beta-blockers [3, 10]: adverse effect
Post hoc analysis of the combined end point and mortality, patients receiving neither or one of ACE inhibitors or beta-blockers [3, 10]: favorable effect
Combined end point of mortality and morbidity, relative risk ([3]; valsartan versus placebo): 0.87

CCOC(=O)[C@H](CCc1ccccc1)N[C@@H](C)C(=O)N1CCC[C@H]1C(=O)O [Enalapril, (2S)-1-[(2S)-2-{[(2S)-1-ethoxy-1-oxo-4-phenylbutan-2-yl]amino}propanoyl]-pyrrolidine-2-carboxylic acid, reference compound]
Death from any cause, number of patients [1]: 835 patients
Death from any cause, percent of patients [1]: 19.8%
Death from cardiovascular causes or first hospitalization for worsening heart failure (primary composite outcome), number of patients with an event [1]: 1117 patients
Death from cardiovascular causes or first hospitalization for worsening heart failure (primary composite outcome), percent of patients [1]: 26.5%
Death from cardiovascular causes, number of patients [1]: 693 patients
Death from cardiovascular causes, percent of patients [1]: 16.5%
Decline in renal function, percent of patients [1]: 2.6
First hospitalization for worsening heart failure, number of patients [1]: 658 patients
First hospitalization for worsening heart failure, percent of patients [1]: 15.6%
Protocol-defined decline in renal function, number of patients [1]: 108 patients
Progressed to end-stage renal disease, number of patients [1]: 16 patients
New onset atrial fibrillation, number of patients with an event (as a fraction of number of patients at risk) [1]: 83/2638
New onset atrial fibrillation, percent of patients at risk [1]: (3.2)
New onset atrial fibrillation, number of patients with an event (as a fraction of number of patients at risk) ([1]; listed as enalapril): 83 patients
KCCQ clinical summary score, direction of change when zero values were not imputed for patients who died [1]: declined
Mean change in KCCQ Clinical Summary Score from baseline to month 8 [1, 9]: −4.63
Angioedema confirmed by blinded adjudication, number of patients ([2]; human, in vivo): 10 patients
Patients who stopped study medication because of renal impairment ([2]; human, in vivo): 1.4%
Patients who stopped study medication for any adverse event ([2]; human, in vivo): 12.3%
Incidence of angioedema [4]: 0.68%
Incidence of angioedema [5]: 0.5%

O=C(N[C@H]1CCS[C@H]2CCC[C@@H](C(=O)O)N2C1=O)[C@@H](S)Cc1ccccc1 [omapatrilat]
Incidence of angioedema [4]: 2.17%
BP lowering as compared to other therapeutic classes, including ACE inhibitors and calcium channel blockers [6]: greater BP lowering
Incidence of angioedema [5]: 0.8%
Mortality and morbidity in patients with HF relative to enalapril [5]: encouraging trend toward reducing mortality and morbidity
